Laboratory results taken from ChEMBL document CHEMBL1135318 (Bioorg Med Chem Lett, 2002).

Experiments:
[1] = target: T1, Muscarinic acetylcholine receptor M2 (Homo sapiens) (UniProt P08172); test: Displacement of [3H]N-methylscopolamine from membrane preparation from CHO-K1 cells for Muscarinic acetylcholine receptor M2; format: cell membranes; settings: concentration not given here
T1 sequence (whole entry): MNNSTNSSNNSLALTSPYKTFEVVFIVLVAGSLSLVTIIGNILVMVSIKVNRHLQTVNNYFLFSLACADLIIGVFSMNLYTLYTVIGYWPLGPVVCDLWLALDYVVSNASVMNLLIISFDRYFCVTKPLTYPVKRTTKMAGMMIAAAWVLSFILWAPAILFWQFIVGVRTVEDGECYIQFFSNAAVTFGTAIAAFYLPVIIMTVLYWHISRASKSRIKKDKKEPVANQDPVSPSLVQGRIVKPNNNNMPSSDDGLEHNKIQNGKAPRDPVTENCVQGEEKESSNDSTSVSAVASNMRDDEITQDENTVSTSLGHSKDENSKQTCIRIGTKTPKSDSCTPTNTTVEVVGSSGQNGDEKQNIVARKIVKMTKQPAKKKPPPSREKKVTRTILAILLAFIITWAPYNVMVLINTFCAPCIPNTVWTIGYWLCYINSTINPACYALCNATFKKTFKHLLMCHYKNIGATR

[2] = target: T2, Muscarinic acetylcholine receptor M3 (Homo sapiens, UniProt P20309); test: Displacement of [3H]N-methylscopolamine from membrane preparation from CHO-K1 cells for Muscarinic acetylcholine receptor M3; format: cell membranes; settings: concentration not given here
Target sequence in this assay (P20309 whole entry, looked up): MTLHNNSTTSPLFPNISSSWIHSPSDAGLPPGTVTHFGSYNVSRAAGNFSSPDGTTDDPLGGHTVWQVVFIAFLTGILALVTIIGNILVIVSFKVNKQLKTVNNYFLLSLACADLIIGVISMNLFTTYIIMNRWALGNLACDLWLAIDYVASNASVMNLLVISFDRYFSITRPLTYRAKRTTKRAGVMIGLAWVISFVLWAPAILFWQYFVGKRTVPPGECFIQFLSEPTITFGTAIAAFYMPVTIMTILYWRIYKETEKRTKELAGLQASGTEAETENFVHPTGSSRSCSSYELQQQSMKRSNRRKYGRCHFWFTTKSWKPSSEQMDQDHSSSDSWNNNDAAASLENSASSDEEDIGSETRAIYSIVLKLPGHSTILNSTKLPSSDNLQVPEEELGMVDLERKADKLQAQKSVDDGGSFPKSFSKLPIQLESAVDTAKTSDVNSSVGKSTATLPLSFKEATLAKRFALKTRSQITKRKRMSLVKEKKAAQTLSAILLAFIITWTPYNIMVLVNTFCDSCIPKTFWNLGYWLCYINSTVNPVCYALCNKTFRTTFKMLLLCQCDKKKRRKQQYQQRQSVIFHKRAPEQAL

[3] = target: T2, Muscarinic acetylcholine receptor M3; test: Displacement of [3H]N-methylscopolamine from membrane preparation from CHO-K1 cells for Muscarinic acetylcholine receptor M3; value given as 20-50%; format: cell membranes; settings: concentration not given here
Target sequence in this assay (P20309 whole entry, looked up): as above

[4] = target: T1, Muscarinic acetylcholine receptor M2 (Homo sapiens); test: Displacement of [3H]N-methylscopolamine from membrane preparation from CHO-K1 cells for Muscarinic acetylcholine receptor M2; value given as 20-50%; format: cell membranes; settings: concentration not given here
[5] = target: T2, Muscarinic acetylcholine receptor M3; test: In vitro affinity for muscarinic M3 receptor.
Target sequence in this assay (P20309 whole entry): as the sequence (P20309 whole entry, looked up) above

[6] = target: T3, Muscarinic acetylcholine receptor M2 (Homo sapiens, UniProt P08172); test: In vitro affinity for muscarinic M2 receptor.
T3 sequence (P08172 whole entry): T1 sequence (whole entry)

`O=C(c1cccs1)N(C1CCC1)C1CCN(Cc2ccccc2)CC1` was tested, and the inhibition [1] was < 20% and the inhibition [2] was < 20%.

Molecule `O=C(c1ccccc1)N(C1CCC1)C1CCN(Cc2ccccc2)CC1` has an inhibition [3] of 20% and an inhibition [4] of 20%.

For `O=C(c1ccccc1)N(Cc1ccccc1)C1CCN(Cc2ccccc2)CC1`, the Ki [5] was 158 nM and the Ki [6] was 631 nM.
